Results taken from US7723523B2, “Tetrahydropyridothiophenes” (4SC AG, priority 2004, dated 2010).
pIC50: −log10 of the molar value.

What was measured:
[1] = tested on: RKO (RKOp27) human colon adenocarcinoma cells; assay: Alamar Blue cell viability assay, anti-proliferative/cytotoxic activity on proliferating RKOp27 cells; type: cell-based; conditions: absence of Ponasterone A, 72 hours incubation, read-out: IC50 RKO p27 proliferating
Experimental: The anti-proliferative/cytotoxic activity of the compounds described herein, can be tested on subclones of RKO (RKOp27) human colon adenocarcinoma cells (Schmidt et al., Oncogene 19, 2423-2429; 2000) using the Alamar Blue cell viability assay (described in O'Brien et al. Eur J Biochem 267, 5421-5426, 2000). The compounds are dissolved as 20 mM solutions in dimethylsulfoxide (DMSO) and subsequently diluted in semi-logarithmic steps. DMSO dilutions are further diluted 1:100 into Dulbecco's modified Eagle's medium (DMEM) containing 10% fetal calf serum to a final concentration twice as much as the final concentration in the test. RKO subclones are seeded into 96 well flat bottom plates at a density of 4000 cells per well in a volume of 50 μl per well. 24 hours after seeding 50 μl each of the compound dilutions in DMEM are added into each well of the 96 well plate. Each compound dilution is tested as quadruplicates. Wells containing untreated control cells are filled with 50 μl DMEM containing 1% DMSO. The cells are then incubated with the substances for 72 hours at 37° C. in a humidified atmosphere containing 5% carbon dioxide. To determine the viability of the cells, 10 μl of an Alamar Blue solution (Biosource) are added and the fluorescence is measured at an extinction of 544 nm and an emission of 590 nm. For the calculation of the cell viability the emission value from untreated cells is set as 100% viability and the emission rates of treated cells are set in relation to the values of untreated cells. Viabilities are expressed as % values.
The corresponding IC50 values of the compounds for anti-proliferative/cytotoxic activity are determined from the concentration-effect curves.
Representative IC50 values for anti-proliferation/cytotoxicity determined in the aforementioned assay are described in the table A (1st column), in which the numbers of the compound correspond to the numbers of the examples.

[2] = tested on: RKO colon adenocarcinoma cells (RKOp27) arrested by expression of ectopic p27Kip1; assay: Alamar Blue cell viability assay on RKOp27 cells arrested by Ponasterone A-induced p27Kip1 (cell cycle specific mode of action); type: cell-based; conditions: Homo sapiens, RKOp27, 72 h, cells arrested by p27Kip1 induced with 10 μM Ponasterone A, 72 hours incubation, read-out: IC50 RKO p27 arrested
Experimental: To determine the cell cycle specific mode of action, subclones of RKO colon adenocarcinoma cells (RKOp27 or RKOp21 as described by Schmidt et al. in Oncogene 19, 2423-2429; 2000) are seeded into 96 well flat bottom plates at a density of 16000 cells per well in a volume of 50 μl per well in DMEM growth medium with 10% FCS containing 10 μM Ponasterone A. 24 hours after seeding 50 μl each of the compound dilutions in DMEM are added into each well of the 96 well plate. Each compound dilution is tested as quadruplicates. Wells containing untreated control cells are filled with 50 μl DMEM containing 1% DMSO. The cells are then incubated with the substances for 72 hours at 37° C. in a humidified atmosphere containing 5% carbon dioxide. To determine the viability of the cells, 10 μl of an Alamar Blue solution (Biosource) are added and the fluorescence is measured at an extinction of 544 nm and an emission of 590 nm. For the calculation of the cell viability the emission value from untreated cells is set as 100% viability and the emission rates of treated cells are set in relation to the values of untreated cells. Viabilities are expressed as % values. Viability is compared of proliferating cells grown in the absence of the inducer Ponasterone A, versus viability of cells arrested by the expression of ectopic p27Kip1 induced by Ponasterone A. The data of this experimental setting are summarized in table A (2nd column).

pIC50 [2] | Structure (SMILES) | pIC50 [1]
≤ 4.30 | CCOc1ccccc1/C=C/C(=O)Nc1sc2c(c1C#N)CCN(C(=O)CCc1cccnc1)C2 [Example 220, (E)-N-[3-Cyano-6-(3-pyridin-3-yl-propanoyl)-4,5,6,7-tetrahydro-thieno[2,3-c]pyridin-2-yl]-3-(2-ethoxy-phenyl)-acrylamide] | ≥ 6.30
≤ 4.00 | N#Cc1c(NC(=O)/C=C/c2ccccc2)sc2c1CCN(C(=O)Cc1cccnc1)C2 [Example 183, (E)-N-[3-Cyano-6-(2-pyridin-3-yl-ethanoyl)-4,5,6,7-tetrahydro-thieno[2,3-c]pyridin-2-yl]-3-phenyl-acrylamide] | ≥ 5.70
≤ 4.00 | COCC(=O)N1CCc2c(sc(NC(=O)/C=C/c3ccccc3OC)c2C#N)C1 [Example 210, (E)-N-[3-Cyano-6-(2-methoxy-ethanoyl)-4,5,6,7-tetrahydro-thieno[2,3-c]pyridin-2-yl]-3-(2-methoxy-phenyl)-acrylamide] | ≥ 5.70
≤ 4.30 | CCOC(=O)N1CCc2c(sc(NC(=O)/C=C/c3cc4ccccc4o3)c2C#N)C1 [Example 84, 2-[(E)-3-Benzofuran-2-yl-allanoylamino]-3-cyano-4,7-dihydro-5H-thieno[2,3-c]pyridine-6-carboxylic acid ethyl ester] | ≥ 6.30
≤ 4.00 | N#Cc1c(NC(=O)/C=C/c2ccccc2)sc2c1CCN(C(=O)OCCc1ccncc1)C2 [Example 126, 3-Cyano-2-((E)-3-phenyl-allanoylamino)-4,7-dihydro-5H-thieno[2,3-c]pyridine-6-carboxylic acid 2-pyridin-4-yl-ethyl ester] | ≥ 5.70
≤ 4.00 | COC(=O)CCCC(=O)N1CCc2c(sc(NC(=O)/C=C/c3ccccc3)c2C#N)C1 [Example 186, 5-[3-Cyano-2-((E)-3-phenyl-allanoylamino)-4,7-dihydro-5H-thieno[2,3-c]pyridin-6-yl]-5-oxo-pentanoic acid methyl ester] | ≥ 5.70
≤ 4.00 | Cc1ncc([N+](=O)[O-])n1CCOC(=O)N1CCc2c(sc(NC(=O)/C=C/c3ccccc3)c2C#N)C1 [Example 122, 3-Cyano-2-((E)-3-phenyl-allanoylamino)-4,7-dihydro-5H-thieno[2,3-c]pyridine-6-carboxylic acid 2-(2-methyl-5-nitro-imidazol-1-yl)-ethyl ester] | ≥ 5.70
≤ 4.00 | CCOC(=O)N1CCc2c(sc(NC(=O)/C=C/c3nn(C)cc3Cl)c2C#N)C1 [Example 90, 2-[(E)-3-(4-Chloro-1-methyl-1H-pyrazol-3-yl)-allanoylamino]-3-cyano-4,7-dihydro-5H-thieno[2,3-c]pyridine-6-carboxylic acid ethyl ester] | ≥ 5.70
≤ 4.00 | N#Cc1c(NC(=O)/C=C/c2ccccc2Cl)sc2c1CCN(C(=O)CCc1cccnc1)C2 [Example 215, (E)-3-(2-Chloro-phenyl)-N-[3-cyano-6-(3-pyridin-3-yl-propanoyl)-4,5,6,7-tetrahydro-thieno[2,3-c]pyridin-2-yl]-acrylamide] | ≥ 5.70
≤ 4.00 | N#Cc1c(NC(=O)/C=C/c2ccccc2Cl)sc2c1CCN(C(=O)Cc1ccncc1)C2 [Example 214, (E)-3-(2-Chloro-phenyl)-N-[3-cyano-6-(2-pyridin-4-yl-ethanoyl)-4,5,6,7-tetrahydro-thieno[2,3-c]pyridin-2-yl]-acrylamide] | ≥ 5.70
< 4.00 | CCOC(=O)N1CCc2c(sc(NC(=O)/C=C/c3cccc(OC)c3)c2C#N)C1 [Example 19, 3-Cyano-2-[(E)-3-(3-methoxy-phenyl)-allanoylamino]-4,7-dihydro-5H-thieno[2,3-c]pyridine-6-carboxylic acid ethyl ester] | ≥ 5.70
≤ 4.00 | N#Cc1c(NC(=O)/C=C/c2cccnc2)sc2c1CCN(C(=O)OCc1ccncc1)C2 [Example 160, 3-Cyano-2-((E)-3-pyridin-3-yl-allanoylamino)-4,7-dihydro-5H-thieno[2,3-c]pyridin-6-carboxylic acid pyridin-4-ylmethyl ester] | ≥ 5.70
< 4.00 | CCOC(=O)N1CCc2c(sc(NC(=O)/C=C/c3ccccc3)c2C#N)C1 [Example 1, N-(6-Ethoxycarbonyl-3-cyano-4,5,6,7-tetrahydro-thieno[2,3-c]pyridin-2-yl)-3-phenyl-acrylamide] | > 6.00
≤ 4.00 | CCOc1ccccc1/C=C/C(=O)Nc1sc2c(c1C#N)CCN(C(=O)COC)C2 [Example 223, (E)-N-[3-Cyano-6-(2-methoxy-ethanoyl)-4,5,6,7-tetrahydro-thieno[2,3-c]pyridin-2-yl]-3-(2-ethoxy-phenyl)-acrylamide] | ≥ 5.70
≤ 4.30 | CCOC(=O)N1CCc2c(sc(NC(=O)/C=C/c3ccccc3N3CCOCC3)c2C#N)C1 [Example 88, 3-Cyano-2-[(E)-3-(2-morpholin-4-yl-phenyl)-allanoylamino]-4,7-dihydro-5H-thieno[2,3-c]pyridine-6-carboxylic acid ethyl ester] | ≥ 6.30
≤ 4.00 | CC1(C)OCC(COC(=O)N2CCc3c(sc(NC(=O)/C=C/c4cccnc4)c3C#N)C2)O1 (stereo not shown) [Example 164, 3-Cyano-2-((E)-3-pyridin-3-yl-allanoylamino)-4,7-dihydro-5H-thieno[2,3-c]pyridine-6-carboxylic acid 2,2-dimethyl-[1,3]dioxolan-4-ylmethyl ester] | ≥ 5.70
≤ 4.00 | N#Cc1c(NC(=O)/C=C/c2cccnc2)sc2c1CCN(C(=O)OCCOCc1ccccc1)C2 [Example 166, 3-Cyano-2-((E)-3-pyridin-3-yl-allanoylamino)-4,7-dihydro-5H-thieno[2,3-c]pyridine-6-carboxylic acid 2-benzyloxy-ethyl ester] | ≥ 5.70
≤ 4.00 | COC(=O)c1ccc(OC(=O)N2CCc3c(sc(NC(=O)/C=C/c4cccnc4)c3C#N)C2)cc1 [Example 151, 3-Cyano-2-((E)-3-pyridin-3-yl-allanoylamino)-4,7-dihydro-5H-thieno[2,3-c]pyridine-6-carboxylic acid 4-methoxycarbonyl-phenyl ester] | ≥ 5.70
≤ 4.00 | CCOC(=O)N1CCc2c(sc(NC(=O)/C=C/c3ccc(-c4ccccc4)s3)c2C#N)C1 [Example 85, 3-Cyano-2-[(E)-3-(5-phenyl-thiophen-2-yl)-allanoylamino]-4,7-dihydro-5H-thieno[2,3-c]pyridine-6-carboxylic acid ethyl ester] | ≥ 5.70
< 4.00 | CCOC(=O)N1CCc2c(sc(NC(=O)/C=C/c3ccc(C)cc3)c2C#N)C1 [Example 27, 3-Cyano-2-((E)-3-p-tolyl-allanoylamino)-4,7-dihydro-5H-thieno[2,3-c]pyridine-6-carboxylic acid ethyl ester] | ≥ 5.70
≤ 4.00 | N#Cc1c(NC(=O)/C=C/c2ccco2)sc2c1CCN(C(=O)OCCc1ccccn1)C2 [Example 243, 3-Cyano-2-((E)-3-furan-2-yl-allanoylamino)-4,7-dihydro-5H-thieno[2,3-c]pyridine-6-carboxylic acid 2-pyridin-2-yl-ethyl ester] | ≥ 5.70
< 4.00 | CCOC(=O)N1CCc2c(sc(NC(=O)/C=C/c3ccco3)c2C#N)C1 [Example 10, 3-Cyano-2-((E)-3-furan-2-yl-allanoylamino)-4,7-dihydro-5H-thieno[2,3-c]pyridine-6-carboxylic acid ethyl ester] | ≥ 5.70
≤ 4.00 | N#Cc1c(NC(=O)/C=C/c2ccccc2Cl)sc2c1CCN(C(=O)Cc1ccccn1)C2 [Example 212, (E)-3-(2-Chloro-phenyl)-N-[3-cyano-6-(2-pyridin-2-yl-ethanoyl)-4,5,6,7-tetrahydro-thieno[2,3-c]pyridin-2-yl]-acrylamide] | ≥ 5.70
